Experimental data taken from US11912789B2, “Peptide activating agent” (Interk Peptide Therapeutics Limited, priority 2018, dated 2024).

System: PBMCs
Assay: Foxp3+ Treg proportion in anti-CD3 stimulated PBMCs
Type: cell-based, human
Settings: in the absence of RSKAKNPLYR-(2Adod)4-NH2; FIG. 9
Description: Shown is the percentage inhibition of Regulatory T cells (Tregs:Foxp3+) within human PBMCs in the presence of RSKAKNPLYR-(2Adod)4-NH2 (cells gated for CD4+/CD25+/CD127101. Anti-CD3 stimulated PBMCs were cultured together with RSKAKNPLYR-(2Adod)4-NH2 over a 5-concentration range plus vehicle control (0-1.25 μM) for 48 hrs. Treg populations were determined by measuring Foxp3+ proportion of cells within CD4+CD25+CD127^low population. Data were normalised due to donor variation. Data presented indicates the fold change in Foxp3+ Treg proportions in response to peptide treatment, +/−SEM, n=4. Data were analysed by RM two-way ANOVA with Dunnett's post-test comparing each peptide concentration with […], **p<0.01, ****p<0.0001. Dotted line indicates vehicle control for normalisation.
Anti-CD3 stimulated PBMCs were cultured together with RSKAKNPLYR-(2Adod)4-NH2, over a 5-concentration range plus vehicle control (0-1.25 μM) in combination with anti-PD-1 (Pembrolizumab) or isotype (hlgG4) for 48 hrs after which CD4+ and CD8+ T cells were assessed by flow cytometry. Treg populations were determined by measuring Foxp3+ proportion of cells within CD4+CD25+CD127^low populations. […] Data were analysed by RM two-way ANOVA with Sidak's post-test comparing peptide in combination with anti-PD-1 vs combination with hlgG4 at each dose, *p<0.05, **p<0.01. […]

Pembrolizumab [anti-PD-1 antibodies]
proportion of Treg cells within PBMCs, anti-PD-1 versus isotype control: same proportion of Treg cells
